Assay results: PubChem BioAssay AID1963449 (Molecular Pharmacology Branch, DTP, NCI, 2024)

Test system: 596521-263-R-J1-PDC complex spheroid growth
Assay: Anticancer human tumor 596521-263-R-J1-PDC patient-derived soft tissue sarcoma cell line growth inhibition [Asc]
Details: for IC50: curve of first compound; for viability, T/C: stronger effect = lower value
Procedure, shortened: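 Tumor cells were grown as multicellular spheroids with stromal HUVEC and mesenchymal stem cells and treated singly or in combination. Concentrations fell in half-log steps from the clinical Cmax, or from 10 microM where none was known.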

[1] = second compound 0.00316 µM, first compound 0.00316 µM
[2] = second compound 0.00316 µM, first compound 0.01 µM
[3] = second compound 0.00316 µM, first compound 0.0316 µM
[4] = second compound 0.00316 µM, first compound 0.1 µM
[5] = second compound 0.00316 µM, first compound 0.316 µM
[6] = second compound 0.00316 µM, first compound 1 µM
[7] = second compound 0.01 µM, first compound 0.00316 µM
[8] = second compound 0.01 µM, first compound 0.01 µM
[9] = second compound 0.01 µM, first compound 0.0316 µM
[10] = second compound 0.01 µM, first compound 0.1 µM
[11] = second compound 0.01 µM, first compound 0.316 µM
[12] = second compound 0.01 µM, first compound 1 µM
[13] = second compound 0.0316 µM, first compound 0.00316 µM
[14] = second compound 0.0316 µM, first compound 0.01 µM
[15] = second compound 0.0316 µM, first compound 0.0316 µM
[16] = second compound 0.0316 µM, first compound 0.1 µM
[17] = second compound 0.0316 µM, first compound 0.316 µM
[18] = second compound 0.0316 µM, first compound 1 µM
[19] = second compound 0.1 µM, first compound 0.00316 µM
[20] = second compound 0.1 µM, first compound 0.01 µM
[21] = second compound 0.1 µM, first compound 0.0316 µM
[22] = second compound 0.1 µM, first compound 0.1 µM
[23] = second compound 0.1 µM, first compound 0.316 µM
[24] = second compound 0.1 µM, first compound 1 µM
[25] = second compound 0.316 µM, first compound 0.00316 µM
[26] = second compound 0.316 µM, first compound 0.01 µM
[27] = second compound 0.316 µM, first compound 0.0316 µM
[28] = second compound 0.316 µM, first compound 0.1 µM
[29] = second compound 0.316 µM, first compound 0.316 µM
[30] = second compound 0.316 µM, first compound 1 µM
[31] = second compound 1 µM, first compound 0.00316 µM
[32] = second compound 1 µM, first compound 0.01 µM
[33] = second compound 1 µM, first compound 0.0316 µM
[34] = second compound 1 µM, first compound 0.1 µM
[35] = second compound 1 µM, first compound 0.316 µM
[36] = second compound 1 µM, first compound 1 µM
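Note: spheroids exposed to compounds for 7 days.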

CCN1CCN(Cc2ccc(Nc3ncc(F)c(-c4cc(F)c5nc(C)n(C(C)C)c5c4)n3)nc2)CC1 + CNC(C)C(=O)NC1CN(S(=O)(=O)c2cccc(S(=O)(=O)N3CCC4CCC(C(=O)NC(c5ccccc5)c5ccccc5)N4C(=O)C(NC(=O)C(C)NC)C3)c2)CCC2CCC(C(=O)NC(c3ccccc3)c3ccccc3)N2C1=O
IC50 (second compound 0.00316 µM): > 1000 nM | IC50 (second compound 0.01 µM): > 1000 nM | IC50 (second compound 0.0316 µM): > 1000 nM | IC50 (second compound 0.1 µM): > 1000 nM | IC50 (second compound 0.316 µM): > 1000 nM | IC50 (second compound 1 µM): > 1000 nM | viability, T/C [1]: 90.8% | viability, T/C [2]: 81.4% | viability, T/C [3]: 77% | viability, T/C [4]: 79.8% | viability, T/C [5]: 81.7% | viability, T/C [6]: 74.1% | viability, T/C [7]: 98.6% | viability, T/C [8]: 87.5% | viability, T/C [9]: 81.2% | viability, T/C [10]: 84.6% | viability, T/C [11]: 81.6% | viability, T/C [12]: 91.3% | viability, T/C [13]: 79.9% | viability, T/C [14]: 83.4% | viability, T/C [15]: 79% | viability, T/C [16]: 76.8% | viability, T/C [17]: 93.5% | viability, T/C [18]: 76% | viability, T/C [19]: 73% | viability, T/C [20]: 78.8% | viability, T/C [21]: 76% | viability, T/C [22]: 86% | viability, T/C [23]: 79.7% | viability, T/C [24]: 84.8% | viability, T/C [25]: 75.4% | viability, T/C [26]: 78.1% | viability, T/C [27]: 74.8% | viability, T/C [28]: 77.3% | viability, T/C [29]: 84.7% | viability, T/C [30]: 78.3% | viability, T/C [31]: 70.4% | viability, T/C [32]: 76% | viability, T/C [33]: 72.3% | viability, T/C [34]: 70.7% | viability, T/C [35]: 72.7% | viability, T/C [36]: 69.4%

Cn1ncnc1[C@H]1c2n[nH]c(=O)c3cc(F)cc(c23)N[C@@H]1c1ccc(F)cc1 + CNC(C)C(=O)NC1CN(S(=O)(=O)c2cccc(S(=O)(=O)N3CCC4CCC(C(=O)NC(c5ccccc5)c5ccccc5)N4C(=O)C(NC(=O)C(C)NC)C3)c2)CCC2CCC(C(=O)NC(c3ccccc3)c3ccccc3)N2C1=O
IC50 (second compound 0.00316 µM): < 0.316 nM | IC50 (second compound 0.01 µM): > 100 nM | IC50 (second compound 0.0316 µM): > 100 nM | IC50 (second compound 0.1 µM): > 100 nM | IC50 (second compound 0.316 µM): > 100 nM | IC50 (second compound 1 µM): > 100 nM | viability, T/C (second compound 0.00316 µM, first compound 0.000316 µM): 16.1% | viability, T/C (second compound 0.00316 µM, first compound 0.001 µM): 16% | viability, T/C [1]: 15.3% | viability, T/C [2]: 16.5% | viability, T/C [3]: 15.2% | viability, T/C [4]: 15.6% | viability, T/C (second compound 0.01 µM, first compound 0.000316 µM): 76% | viability, T/C (second compound 0.01 µM, first compound 0.001 µM): 62.1% | viability, T/C [7]: 63.8% | viability, T/C [8]: 64.2% | viability, T/C [9]: 67.4% | viability, T/C [10]: 57.3% | viability, T/C (second compound 0.0316 µM, first compound 0.000316 µM): 92.6% | viability, T/C (second compound 0.0316 µM, first compound 0.001 µM): 75.9% | viability, T/C [13]: 73% | viability, T/C [14]: 76.9% | viability, T/C [15]: 64.1% | viability, T/C [16]: 64.7% | viability, T/C (second compound 0.1 µM, first compound 0.000316 µM): 81.9% | viability, T/C (second compound 0.1 µM, first compound 0.001 µM): 81% | viability, T/C [19]: 79.9% | viability, T/C [20]: 71.1% | viability, T/C [21]: 62.2% | viability, T/C [22]: 60.3% | viability, T/C (second compound 0.316 µM, first compound 0.000316 µM): 83.3% | viability, T/C (second compound 0.316 µM, first compound 0.001 µM): 74.7% | viability, T/C [25]: 79.3% | viability, T/C [26]: 64% | viability, T/C [27]: 65.1% | viability, T/C [28]: 60.6% | viability, T/C (second compound 1 µM, first compound 0.000316 µM): 73.2% | viability, T/C (second compound 1 µM, first compound 0.001 µM): 76.8% | viability, T/C [31]: 71.5% | viability, T/C [32]: 77.3% | viability, T/C [33]: 64.1% | viability, T/C [34]: 58.3%

O=C(c1cc(Cc2n[nH]c(=O)c3ccccc23)ccc1F)N1CCN(C(=O)C2CC2)CC1 + CNC(C)C(=O)NC1CN(S(=O)(=O)c2cccc(S(=O)(=O)N3CCC4CCC(C(=O)NC(c5ccccc5)c5ccccc5)N4C(=O)C(NC(=O)C(C)NC)C3)c2)CCC2CCC(C(=O)NC(c3ccccc3)c3ccccc3)N2C1=O
IC50 (second compound 0.00316 µM): < 31.6 nM | IC50 (second compound 0.01 µM): 2080 nM | IC50 (second compound 0.0316 µM): 4760 nM | IC50 (second compound 0.1 µM): 3650 nM | IC50 (second compound 0.316 µM): 2910 nM | IC50 (second compound 1 µM): 2230 nM | viability, T/C [3]: 16.1% | viability, T/C [4]: 14.4% | viability, T/C [5]: 17.1% | viability, T/C [6]: 14.8% | viability, T/C (second compound 0.00316 µM, first compound 3.16 µM): 13.7% | viability, T/C (second compound 0.00316 µM, first compound 10 µM): 12.7% | viability, T/C [9]: 73.9% | viability, T/C [10]: 61.2% | viability, T/C [11]: 60.7% | viability, T/C [12]: 64.3% | viability, T/C (second compound 0.01 µM, first compound 3.16 µM): 36.7% | viability, T/C (second compound 0.01 µM, first compound 10 µM): 45.1% | viability, T/C [15]: 90.9% | viability, T/C [16]: 84.4% | viability, T/C [17]: 87.2% | viability, T/C [18]: 71.8% | viability, T/C (second compound 0.0316 µM, first compound 3.16 µM): 54.6% | viability, T/C (second compound 0.0316 µM, first compound 10 µM): 42.4% | viability, T/C [21]: 79.1% | viability, T/C [22]: 73.4% | viability, T/C [23]: 75.5% | viability, T/C [24]: 78.1% | viability, T/C (second compound 0.1 µM, first compound 3.16 µM): 51.7% | viability, T/C (second compound 0.1 µM, first compound 10 µM): 37.7% | viability, T/C [27]: 77.4% | viability, T/C [28]: 79.2% | viability, T/C [29]: 80.5% | viability, T/C [30]: 72.4% | viability, T/C (second compound 0.316 µM, first compound 3.16 µM): 48.4% | viability, T/C (second compound 0.316 µM, first compound 10 µM): 36% | viability, T/C [33]: 68.7% | viability, T/C [34]: 71.5% | viability, T/C [35]: 61.7% | viability, T/C [36]: 69.1% | viability, T/C (second compound 1 µM, first compound 3.16 µM): 42.3% | viability, T/C (second compound 1 µM, first compound 10 µM): 31.3%

O=C(c1ccc(F)c(F)c1Nc1ccc(I)cc1F)N1CC(O)([C@@H]2CCCCN2)C1 + CNC(C)C(=O)NC1CN(S(=O)(=O)c2cccc(S(=O)(=O)N3CCC4CCC(C(=O)NC(c5ccccc5)c5ccccc5)N4C(=O)C(NC(=O)C(C)NC)C3)c2)CCC2CCC(C(=O)NC(c3ccccc3)c3ccccc3)N2C1=O
IC50 (second compound 0.00316 µM): 179 nM | IC50 (second compound 0.01 µM): 248 nM | IC50 (second compound 0.0316 µM): 211 nM | IC50 (second compound 0.1 µM): 187 nM | IC50 (second compound 0.316 µM): 186 nM | IC50 (second compound 1 µM): 149 nM | viability, T/C [1]: 94% | viability, T/C [2]: 89.4% | viability, T/C [3]: 90.5% | viability, T/C [4]: 63.4% | viability, T/C [5]: 37.2% | viability, T/C [6]: 27.1% | viability, T/C [7]: 88.4% | viability, T/C [8]: 75.8% | viability, T/C [9]: 93.3% | viability, T/C [10]: 69.6% | viability, T/C [11]: 45.2% | viability, T/C [12]: 27.8% | viability, T/C [13]: 96.6% | viability, T/C [14]: 87% | viability, T/C [15]: 84.9% | viability, T/C [16]: 61% | viability, T/C [17]: 43.9% | viability, T/C [18]: 27.3% | viability, T/C [19]: 76.5% | viability, T/C [20]: 73.3% | viability, T/C [21]: 73% | viability, T/C [22]: 65% | viability, T/C [23]: 37.5% | viability, T/C [24]: 22.8% | viability, T/C [25]: 78.9% | viability, T/C [26]: 91.6% | viability, T/C [27]: 77.4% | viability, T/C [28]: 65.9% | viability, T/C [29]: 36.8% | viability, T/C [30]: 23.8% | viability, T/C [31]: 65.9% | viability, T/C [32]: 68.8% | viability, T/C [33]: 74.2% | viability, T/C [34]: 53.2% | viability, T/C [35]: 37.9% | viability, T/C [36]: 18.3%
